Test results: PMC5847526, “Inhibition of neuronal FLT3 receptor tyrosine kinase alleviates peripheral neuropathic pain in mice” (Nature Communications, 2018)

Key:
Test in all cases: biochemical
Set-up in all cases: ExpresS Diversity kinase profile (Eurofins Cerep P10), per cent inhibition
Conditions in all cases: read-out: Inhibition of reference binding (Table 4)
IRK = molecular target: T1, IRK (Homo sapiens, UniProt P06213)
T1 construct: gene INSR; insulin receptor kinase

Src kinase = Src kinase (Homo sapiens, UniProt P12931)
SIK = molecular target: T2, SIK (Homo sapiens, UniProt P57059)
T2 construct: gene SIK1
T2 sequence (P57059 whole entry): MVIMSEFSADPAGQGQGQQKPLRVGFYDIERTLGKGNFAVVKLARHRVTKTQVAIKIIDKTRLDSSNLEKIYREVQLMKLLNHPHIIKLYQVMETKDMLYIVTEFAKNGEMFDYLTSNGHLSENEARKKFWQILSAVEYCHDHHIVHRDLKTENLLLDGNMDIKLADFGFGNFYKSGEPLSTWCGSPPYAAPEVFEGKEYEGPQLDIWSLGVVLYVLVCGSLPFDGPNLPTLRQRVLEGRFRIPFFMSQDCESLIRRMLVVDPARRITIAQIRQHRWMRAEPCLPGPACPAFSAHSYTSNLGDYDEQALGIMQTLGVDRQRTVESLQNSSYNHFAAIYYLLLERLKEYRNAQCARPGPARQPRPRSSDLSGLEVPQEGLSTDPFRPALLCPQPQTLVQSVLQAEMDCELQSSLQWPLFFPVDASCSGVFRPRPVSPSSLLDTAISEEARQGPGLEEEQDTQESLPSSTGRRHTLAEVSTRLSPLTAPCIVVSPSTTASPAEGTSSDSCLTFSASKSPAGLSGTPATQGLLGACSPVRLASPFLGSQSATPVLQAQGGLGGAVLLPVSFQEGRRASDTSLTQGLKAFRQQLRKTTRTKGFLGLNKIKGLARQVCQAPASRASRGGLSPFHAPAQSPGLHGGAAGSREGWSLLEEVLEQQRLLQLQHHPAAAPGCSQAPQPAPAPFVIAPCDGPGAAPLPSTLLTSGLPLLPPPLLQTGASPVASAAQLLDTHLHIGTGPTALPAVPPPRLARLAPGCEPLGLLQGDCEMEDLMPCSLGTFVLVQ

MNK2 = molecular target: T3, MNK2 (Homo sapiens, UniProt Q9HBH9)
T3 construct: gene MKNK2

PKA = molecular target: T4, PKA (Homo sapiens, UniProt P17612)
T4 construct: gene PRKACA

CaMK2α = molecular target: T5, CaMK2α (Homo sapiens, UniProt Q9UQM7)
T5 construct: gene CAMK2A

PAK2 = PAK2 (Homo sapiens, UniProt Q13177)
MAPKAPK2 = MAPKAPK2 (Homo sapiens, UniProt P49137)
FGFR3 kinase = FGFR3 kinase (Homo sapiens, UniProt P22607)
Lck kinase = Lck kinase (Homo sapiens, UniProt P06239)
JNK1 = molecular target: T6, JNK1 (Homo sapiens, UniProt P45983)
T6 construct: gene MAPK8
T6 sequence (P45983 whole entry): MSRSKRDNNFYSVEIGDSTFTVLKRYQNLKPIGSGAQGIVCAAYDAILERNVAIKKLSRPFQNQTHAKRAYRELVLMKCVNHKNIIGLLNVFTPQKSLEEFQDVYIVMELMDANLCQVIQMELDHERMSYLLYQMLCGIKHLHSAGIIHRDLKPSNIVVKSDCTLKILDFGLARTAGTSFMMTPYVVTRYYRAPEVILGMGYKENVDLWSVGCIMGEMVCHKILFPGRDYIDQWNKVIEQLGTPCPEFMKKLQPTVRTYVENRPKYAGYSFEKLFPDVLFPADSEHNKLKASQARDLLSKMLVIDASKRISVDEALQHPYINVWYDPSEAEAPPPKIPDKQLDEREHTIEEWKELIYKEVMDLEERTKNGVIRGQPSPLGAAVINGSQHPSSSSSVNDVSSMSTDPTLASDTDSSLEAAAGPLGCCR

TRKA = molecular target: T7, TRKA (Homo sapiens, UniProt P04629)
T7 construct: gene NTRK1

RAF-1 kinase = molecular target: T8, RAF-1 kinase (Homo sapiens, UniProt P04049)
T8 construct: gene RAF1

PLK1 = PLK1 (Homo sapiens, UniProt P53350)
Abl kinase = molecular target: T9, Abl kinase (Homo sapiens, UniProt P00519)
T9 construct: gene ABL1
T9 sequence (P00519 whole entry): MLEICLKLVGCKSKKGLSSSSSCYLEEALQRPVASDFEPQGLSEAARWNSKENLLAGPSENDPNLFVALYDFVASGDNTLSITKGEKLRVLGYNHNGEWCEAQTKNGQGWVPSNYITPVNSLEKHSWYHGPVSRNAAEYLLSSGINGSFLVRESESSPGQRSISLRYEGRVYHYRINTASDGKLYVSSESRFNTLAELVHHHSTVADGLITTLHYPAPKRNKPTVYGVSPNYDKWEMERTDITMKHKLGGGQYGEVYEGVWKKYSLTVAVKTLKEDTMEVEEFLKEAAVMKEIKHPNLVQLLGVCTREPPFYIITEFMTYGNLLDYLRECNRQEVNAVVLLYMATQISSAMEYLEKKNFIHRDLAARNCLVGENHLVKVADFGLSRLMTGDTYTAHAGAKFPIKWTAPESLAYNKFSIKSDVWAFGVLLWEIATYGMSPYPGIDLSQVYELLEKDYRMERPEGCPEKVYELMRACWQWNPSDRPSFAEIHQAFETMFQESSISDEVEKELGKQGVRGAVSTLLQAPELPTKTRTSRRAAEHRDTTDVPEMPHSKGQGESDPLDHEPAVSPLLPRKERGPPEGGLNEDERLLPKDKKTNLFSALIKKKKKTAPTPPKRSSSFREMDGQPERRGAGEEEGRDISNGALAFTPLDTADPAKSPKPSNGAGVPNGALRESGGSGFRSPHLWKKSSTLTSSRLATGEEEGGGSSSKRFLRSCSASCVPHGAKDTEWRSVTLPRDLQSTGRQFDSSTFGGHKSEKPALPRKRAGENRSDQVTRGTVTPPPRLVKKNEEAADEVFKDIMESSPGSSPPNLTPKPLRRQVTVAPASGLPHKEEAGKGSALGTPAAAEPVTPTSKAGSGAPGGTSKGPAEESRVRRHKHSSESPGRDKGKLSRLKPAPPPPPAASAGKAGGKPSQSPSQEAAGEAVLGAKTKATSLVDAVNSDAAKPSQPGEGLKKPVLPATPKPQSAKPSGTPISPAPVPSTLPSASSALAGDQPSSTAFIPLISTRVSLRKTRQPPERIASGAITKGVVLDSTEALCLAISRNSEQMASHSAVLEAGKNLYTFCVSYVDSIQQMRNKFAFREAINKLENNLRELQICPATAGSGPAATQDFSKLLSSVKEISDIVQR

AurA/Aur2 kinase = molecular target: T10, AurA/Aur2 kinase (Homo sapiens, UniProt O14965)
T10 construct: gene AURKA

JAK3 = JAK3 (Homo sapiens, UniProt P52333)
JAK3, sequence (P52333 whole entry): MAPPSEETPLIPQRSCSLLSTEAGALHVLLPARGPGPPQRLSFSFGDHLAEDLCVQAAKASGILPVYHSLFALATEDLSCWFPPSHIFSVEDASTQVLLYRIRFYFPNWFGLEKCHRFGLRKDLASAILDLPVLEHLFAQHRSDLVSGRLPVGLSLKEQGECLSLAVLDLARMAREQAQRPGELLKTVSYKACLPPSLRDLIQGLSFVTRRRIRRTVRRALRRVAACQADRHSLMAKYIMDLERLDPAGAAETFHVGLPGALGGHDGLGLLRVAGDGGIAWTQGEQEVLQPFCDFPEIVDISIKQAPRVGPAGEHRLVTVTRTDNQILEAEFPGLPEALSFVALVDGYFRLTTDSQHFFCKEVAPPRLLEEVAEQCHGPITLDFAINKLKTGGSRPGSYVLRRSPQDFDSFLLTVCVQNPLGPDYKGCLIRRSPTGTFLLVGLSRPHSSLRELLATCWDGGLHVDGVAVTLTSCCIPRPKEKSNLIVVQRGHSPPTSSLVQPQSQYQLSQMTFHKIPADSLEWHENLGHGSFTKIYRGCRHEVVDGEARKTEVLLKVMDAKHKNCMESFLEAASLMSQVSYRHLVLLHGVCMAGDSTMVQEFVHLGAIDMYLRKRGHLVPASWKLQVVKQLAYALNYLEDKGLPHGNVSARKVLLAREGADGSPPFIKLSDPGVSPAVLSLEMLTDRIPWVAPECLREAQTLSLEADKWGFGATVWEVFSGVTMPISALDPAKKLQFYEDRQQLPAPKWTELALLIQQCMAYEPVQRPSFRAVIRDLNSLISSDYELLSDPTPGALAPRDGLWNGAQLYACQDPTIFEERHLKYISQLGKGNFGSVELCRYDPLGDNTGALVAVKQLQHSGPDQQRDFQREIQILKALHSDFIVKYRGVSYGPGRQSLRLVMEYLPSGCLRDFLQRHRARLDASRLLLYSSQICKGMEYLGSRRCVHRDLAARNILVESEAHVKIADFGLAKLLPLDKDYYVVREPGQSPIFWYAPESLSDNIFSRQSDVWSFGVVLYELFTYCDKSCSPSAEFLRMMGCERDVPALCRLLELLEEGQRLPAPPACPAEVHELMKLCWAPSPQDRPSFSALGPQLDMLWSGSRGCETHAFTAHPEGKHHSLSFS

CHK2 = molecular target: T11, CHK2 (Homo sapiens, UniProt O96017)
T11 construct: gene CHEK2
T11 sequence (O96017 whole entry): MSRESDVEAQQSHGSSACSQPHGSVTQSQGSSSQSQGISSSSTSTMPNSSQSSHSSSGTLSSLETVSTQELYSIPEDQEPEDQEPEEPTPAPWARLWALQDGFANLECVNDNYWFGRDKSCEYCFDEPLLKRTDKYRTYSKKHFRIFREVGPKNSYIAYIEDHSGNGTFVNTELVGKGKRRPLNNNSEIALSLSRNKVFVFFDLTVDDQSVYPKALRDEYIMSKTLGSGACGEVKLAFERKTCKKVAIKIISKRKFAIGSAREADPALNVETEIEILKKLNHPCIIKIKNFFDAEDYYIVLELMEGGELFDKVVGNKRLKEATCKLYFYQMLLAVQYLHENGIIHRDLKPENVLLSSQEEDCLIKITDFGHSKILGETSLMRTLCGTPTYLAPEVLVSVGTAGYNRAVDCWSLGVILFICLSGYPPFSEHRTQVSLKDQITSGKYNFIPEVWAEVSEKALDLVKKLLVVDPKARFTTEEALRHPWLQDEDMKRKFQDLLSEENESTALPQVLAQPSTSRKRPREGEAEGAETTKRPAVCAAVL

Akt1/PKBα = Akt1/PKBα (Homo sapiens, UniProt P31749)
PKCbeta 2 = molecular target: T12, PKCbeta 2 (Homo sapiens, UniProt P05771)
T12 construct: gene PRKCB; isoform beta 2

PDK1 = molecular target: T13, PDK1 (Homo sapiens, UniProt O15530)
T13 construct: gene PDPK1

EphA3 kinase = EphA3 kinase (Homo sapiens, UniProt P29320)
CHK1 = molecular target: T14, CHK1 (Homo sapiens, UniProt O14757)
T14 construct: gene CHEK1

CDC2/CDK1 = CDC2/CDK1 (Homo sapiens, UniProt P06493)
IKKα = molecular target: T15, IKKα (Homo sapiens, UniProt O15111)
T15 construct: gene CHUK
T15 sequence (O15111 whole entry): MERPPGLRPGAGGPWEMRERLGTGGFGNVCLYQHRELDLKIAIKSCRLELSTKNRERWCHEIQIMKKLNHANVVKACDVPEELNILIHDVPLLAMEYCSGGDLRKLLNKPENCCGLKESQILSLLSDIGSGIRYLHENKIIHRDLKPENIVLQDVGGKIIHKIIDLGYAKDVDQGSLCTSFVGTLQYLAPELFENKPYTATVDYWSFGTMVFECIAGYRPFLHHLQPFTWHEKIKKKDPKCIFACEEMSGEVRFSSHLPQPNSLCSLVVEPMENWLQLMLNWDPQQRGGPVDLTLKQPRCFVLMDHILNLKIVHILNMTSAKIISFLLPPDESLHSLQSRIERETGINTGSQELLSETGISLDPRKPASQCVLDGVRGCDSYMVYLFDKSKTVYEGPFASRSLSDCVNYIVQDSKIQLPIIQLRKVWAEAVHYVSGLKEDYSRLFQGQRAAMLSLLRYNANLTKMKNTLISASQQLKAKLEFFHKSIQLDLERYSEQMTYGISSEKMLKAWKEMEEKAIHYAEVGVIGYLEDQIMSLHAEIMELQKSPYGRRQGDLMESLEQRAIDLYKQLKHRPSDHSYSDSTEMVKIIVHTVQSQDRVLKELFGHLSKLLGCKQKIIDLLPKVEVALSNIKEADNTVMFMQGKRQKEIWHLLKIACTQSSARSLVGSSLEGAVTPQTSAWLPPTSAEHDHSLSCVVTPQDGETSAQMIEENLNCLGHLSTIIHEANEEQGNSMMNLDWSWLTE

PAK4 = PAK4 (Homo sapiens, UniProt O96013)
PDGFRβ = molecular target: T16, PDGFRβ (Homo sapiens, UniProt P09619)
T16 construct: gene PDGFRB

NEK2 = NEK2 (Homo sapiens, UniProt P51955)

`O=C(Nc1cc(Cl)ccc1O)c1cccc(S(=O)(=O)N2CCCCC2)c1` [compound 66, BDT001] gave an inhibition at 10 µM (IRK) of -4%, an inhibition at 10 µM (Src kinase) of -4% and an inhibition at 10 µM (SIK) of -6%. The inhibition at 10 µM (MNK2) was -7%, the inhibition at 10 µM (PKA) was 7% and the inhibition at 10 µM (CaMK2α) was 6%. For the same compound, the inhibition at 10 µM (PAK2) was -8%, the inhibition at 10 µM (MAPKAPK2) was 6% and the inhibition at 10 µM (FGFR3 kinase) was 33%. It also gave an inhibition at 10 µM (Lck kinase) of -14%, an inhibition at 10 µM (JNK1) of 32% and an inhibition at 10 µM (TRKA) of 0%. The inhibition at 10 µM (RAF-1 kinase) was 11%, the inhibition at 10 µM (PLK1) was -5% and the inhibition at 10 µM (Abl kinase) was 16%. The inhibition at 10 µM (AurA/Aur2 kinase) was -5%, the inhibition at 10 µM (JAK3) was -3% and the inhibition at 10 µM (CHK2) was 6%. It also gave an inhibition at 10 µM (Akt1/PKBα) of -13%, an inhibition at 10 µM (PKCbeta 2) of 1% and an inhibition at 10 µM (PDK1) of 3%. The inhibition at 10 µM (EphA3 kinase) was 0%, the inhibition at 10 µM (CHK1) was -10% and the inhibition at 10 µM (CDC2/CDK1) was 26%. The inhibition at 10 µM (IKKα) was 20%, the inhibition at 10 µM (PAK4) was 6% and the inhibition at 10 µM (PDGFRβ) was -2%. The inhibition at 10 µM (NEK2) was -23%.
